In ChEMBL document CHEMBL1201862, “PubChem BioAssay data set” (2004):
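Each compound was tested at five concentrations against cells in 96-well plates for 48 hours. Abbreviation: GI50, concentration required for 50% inhibition of growth.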 Active and inactive are the calls of the source. Cut-off read from the data, not from the text of the source: active = GI50 up to about 1.1 µM and inactive = higher.

Tests used:
Assay in all cases: inhibition of tumour cell growth, NCI panel, 48 h
HL-60 = tested on: HL-60
UO-31 = tested on: UO-31
SNB-75 = tested on: SNB-75
Hs-578T = tested on: Hs-578T
MOLT-4 = tested on: MOLT-4
SNB-19 = tested on: SNB-19
SK-MEL-2 = tested on: SK-MEL-2
MCF7 = tested on: MCF7
MDA-MB-231 = tested on: MDA-MB-231
K562 = tested on: K562
NCI/ADR-RES = tested on: NCI/ADR-RES
HCC 2998 = tested on: HCC 2998
CAKI-1 = tested on: CAKI-1
PC-3 = tested on: PC-3
SK-MEL-5 = tested on: SK-MEL-5
SK-MEL-28 = tested on: SK-MEL-28
SF-539 = tested on: SF-539
DU-145 = tested on: DU-145
NCI-H460 = tested on: NCI-H460
RXF 393 = tested on: RXF 393

Compound | GI50 (HL-60) | GI50 (UO-31) | GI50 (SNB-75) | GI50 (Hs-578T) | GI50 (MOLT-4) | GI50 (SNB-19) | GI50 (SK-MEL-2) | GI50 (MCF7) | GI50 (MDA-MB-231) | GI50 (K562) | GI50 (NCI/ADR-RES) | GI50 (HCC 2998) | GI50 (CAKI-1) | GI50 (PC-3) | GI50 (SK-MEL-5) | GI50 (SK-MEL-28) | GI50 (SF-539) | GI50 (DU-145) | GI50 (NCI-H460) | GI50 (RXF 393)
Cc1sc2nc3n(sc4nc5sc(C)c(C)c5c(=O)n43)c(=O)c2c1C | 40.3 µM (inactive) | > 100 µM (inactive) | 4.81 µM (inactive) | > 100 µM (inactive) | 23 µM (inactive) | > 100 µM (inactive) | > 100 µM (inactive) | 82.4 µM (inactive) | 80.5 µM (inactive) | 93.8 µM (inactive) | > 100 µM (inactive) | > 100 µM (inactive) | 66.1 µM (inactive) | > 100 µM (inactive) | > 100 µM (inactive) | > 100 µM (inactive) | > 100 µM (inactive) | > 100 µM (inactive) | > 100 µM (inactive) | 
CN1C(=O)C2(Cc3cn(C45CC67SSC(CO)(C(=O)N6C4Nc4ccccc45)N(C)C7=O)c4ccccc34)SSC1(CO)C(=O)N2C (centres undefined) | 0.013 µM (active) | 0.0335 µM (active) | 0.0423 µM (active) | 0.0282 µM (active) | 0.0405 µM (active) | 0.271 µM (active) | 0.1 µM (active) | < 0.01 µM (active) | 0.0133 µM (active) | < 0.01 µM (active) | 0.0197 µM (active) | 0.0229 µM (active) | < 0.01 µM (active) | 0.0478 µM (active) | 0.1 µM (active) | 0.084 µM (active) | 0.011 µM (active) | 0.0261 µM (active) | 0.218 µM (active) | 
CCOC(=O)c1nc2ccccc2nc1Oc1ccc(C(=O)OC)cc1 |  | > 100 µM (inactive) | 29 µM (inactive) | > 100 µM (inactive) | 2.87 µM (inactive) | > 100 µM (inactive) | > 100 µM (inactive) | > 100 µM (inactive) | > 100 µM (inactive) | > 100 µM (inactive) | > 100 µM (inactive) |  | > 100 µM (inactive) | > 100 µM (inactive) | > 100 µM (inactive) | > 100 µM (inactive) | > 100 µM (inactive) | > 100 µM (inactive) | > 100 µM (inactive) | > 100 µM (inactive)
CN1CC[C@]23c4c5ccc(O)c4O[C@H]2C(O)CC[C@@]3(O)[C@H]1C5 (some centres undefined) | > 100 µM (inactive) | > 100 µM (inactive) |  | > 100 µM (inactive) | > 100 µM (inactive) | > 100 µM (inactive) | > 100 µM (inactive) | > 100 µM (inactive) | > 100 µM (inactive) |  | > 100 µM (inactive) |  | > 100 µM (inactive) | > 100 µM (inactive) | > 100 µM (inactive) | > 100 µM (inactive) | > 100 µM (inactive) | > 100 µM (inactive) |  | 
Cc1ccc(S(=O)(=O)NC(=O)NC(C(=O)O)C(C)C)cc1 (centres undefined) | > 100 µM (inactive) | > 100 µM (inactive) | > 100 µM (inactive) | > 100 µM (inactive) | > 100 µM (inactive) | > 100 µM (inactive) | > 100 µM (inactive) | > 100 µM (inactive) | > 100 µM (inactive) | > 100 µM (inactive) | > 100 µM (inactive) |  |  | > 100 µM (inactive) | > 100 µM (inactive) | > 100 µM (inactive) | > 100 µM (inactive) | > 100 µM (inactive) | > 100 µM (inactive) | > 100 µM (inactive)
CC(=O)OCC1OC(O/C=C(\CN=[N+]=[N-])C(C)=O)C(OC(C)=O)C(OC(C)=O)C1OC(C)=O (centres undefined) | 2.03 µM (inactive) | 8.28 µM (inactive) | 13.5 µM (inactive) | 52.6 µM (inactive) | 2.53 µM (inactive) | 27.6 µM (inactive) | 16.1 µM (inactive) | 7.62 µM (inactive) | 12.7 µM (inactive) | 5.02 µM (inactive) | 21 µM (inactive) | 19 µM (inactive) | 3.01 µM (inactive) | 12 µM (inactive) | 13.2 µM (inactive) | 18.9 µM (inactive) |  |  | 21.6 µM (inactive) | 
C[N+]12C=CC=C1C(N1CCCC1)c1scc(-c3ccc(F)cc3)c12 (centres undefined) |  | > 100 µM (inactive) | 20.4 µM (inactive) | 21.5 µM (inactive) | 21.6 µM (inactive) | 15.1 µM (inactive) | 10.5 µM (inactive) | 22 µM (inactive) | 42.2 µM (inactive) | 5.74 µM (inactive) | > 100 µM (inactive) |  | > 100 µM (inactive) | 27.1 µM (inactive) | 13.5 µM (inactive) | 66.5 µM (inactive) |  | 81.7 µM (inactive) |  | 24.5 µM (inactive)
COc1ccc(OC)c(-c2nc3n(c2/C=C2/C(=O)Nc4ccccc42)CCS3)c1 | 33.9 µM (inactive) | 41.4 µM (inactive) | 22.3 µM (inactive) | 44.8 µM (inactive) | 27 µM (inactive) | > 100 µM (inactive) | 26 µM (inactive) | 46.7 µM (inactive) | 25.6 µM (inactive) | 37.4 µM (inactive) | 34.8 µM (inactive) |  | 51.4 µM (inactive) | 86.5 µM (inactive) | 53.5 µM (inactive) | > 100 µM (inactive) | 47.9 µM (inactive) | 64.4 µM (inactive) | 35 µM (inactive) | 21.4 µM (inactive)
CCOc1c(OC)cc(C2c3cc4c(c(OCC)c3CC3COC(=O)C32)OCO4)cc1OC (centres undefined) |  | 3.87 µM (inactive) | 5.11 µM (inactive) | 1.99 µM (inactive) | 2.65 µM (inactive) | 3.65 µM (inactive) | 13.2 µM (inactive) | 0.574 µM (active) | 2.17 µM (inactive) | 1.83 µM (inactive) | 2.03 µM (inactive) |  | 5.16 µM (inactive) | 2.37 µM (inactive) | 1.63 µM (inactive) | 16.6 µM (inactive) | 1.75 µM (inactive) | 2.69 µM (inactive) | 3.21 µM (inactive) | 4.6 µM (inactive)
C=C1C(=O)OC2/C=C(\CO)C3OC3C3OC3(C)CC(OC(=O)/C(=C/C)CO)C12 (centres undefined) |  | > 100 µM (inactive) | > 100 µM (inactive) | > 100 µM (inactive) | 26.4 µM (inactive) | > 100 µM (inactive) | > 100 µM (inactive) | 34.8 µM (inactive) | > 100 µM (inactive) | 24.8 µM (inactive) | > 100 µM (inactive) | > 100 µM (inactive) | 28.3 µM (inactive) | > 100 µM (inactive) | > 100 µM (inactive) | 42.1 µM (inactive) | 64 µM (inactive) | > 100 µM (inactive) | > 100 µM (inactive) | 47.1 µM (inactive)
OCC1OC(Oc2cc(O)cc(/C=C\c3ccc(O)cc3)c2)C(O)C(O)C1O (centres undefined) | > 100 µM (inactive) | > 100 µM (inactive) | > 100 µM (inactive) | > 100 µM (inactive) | > 100 µM (inactive) | > 100 µM (inactive) | > 100 µM (inactive) | > 100 µM (inactive) | > 100 µM (inactive) | > 100 µM (inactive) | > 100 µM (inactive) |  | > 100 µM (inactive) | > 100 µM (inactive) | > 100 µM (inactive) | > 100 µM (inactive) | > 100 µM (inactive) | > 100 µM (inactive) | > 100 µM (inactive) | > 100 µM (inactive)
CC(=O)c1nc2ccccc2n1C(C)C(=O)c1ccccc1 (centres undefined) | 29.6 µM (inactive) | 50.7 µM (inactive) | > 100 µM (inactive) | 81.1 µM (inactive) | 34.9 µM (inactive) | 77.6 µM (inactive) |  | 22.2 µM (inactive) | 36.1 µM (inactive) | 36.5 µM (inactive) | 46 µM (inactive) |  | 61.5 µM (inactive) | 72.1 µM (inactive) |  | > 100 µM (inactive) | > 100 µM (inactive) | 64.9 µM (inactive) | 33 µM (inactive) | > 100 µM (inactive)
N=C(N)NS(=O)(=O)c1ccc(Nc2c3ccccc3nc3c(C(=O)NC(CO)(CO)CO)cccc23)cc1 | 18.9 µM (inactive) | 27.5 µM (inactive) | 2.3 µM (inactive) | 11.2 µM (inactive) | 2.79 µM (inactive) | 28.1 µM (inactive) | 19.1 µM (inactive) | 3.44 µM (inactive) | 21.8 µM (inactive) | 24.2 µM (inactive) | > 100 µM (inactive) | 32.1 µM (inactive) | 34.5 µM (inactive) | 32.5 µM (inactive) | 17.5 µM (inactive) | 30.5 µM (inactive) |  | 32.4 µM (inactive) | 2.88 µM (inactive) | 
COC(=O)[C@@]12OC[C@]34[C@H]([C@@H](O)[C@@H]1O)[C@@]1(C)CC(=O)C(O)=C(C)[C@@H]1C[C@H]3OC(=O)[C@H](OC(=O)/C=C(\C)C(C)C)[C@@H]24 [BRUCEANTIN] |  | 0.0598 µM (active) | 0.02 µM (active) | 0.00553 µM (active) | 0.02 µM (active) | 0.02 µM (active) | 0.0209 µM (active) | 0.02 µM (active) | 0.0384 µM (active) | 0.02 µM (active) | 0.337 µM (active) |  | 0.022 µM (active) | 0.016 µM (active) | 0.02 µM (active) | 0.02 µM (active) | 0.02 µM (active) | 0.0142 µM (active) | 0.02 µM (active) | 0.0201 µM (active)
O=C(Nc1ncc([N+](=O)[O-])s1)c1ccccc1O [TIZOXANIDE] |  | 23.7 µM (inactive) | 18.1 µM (inactive) | 6.58 µM (inactive) | 18.5 µM (inactive) | 16.2 µM (inactive) | 12.5 µM (inactive) | 13.7 µM (inactive) | 23.5 µM (inactive) | 28.2 µM (inactive) | 13.6 µM (inactive) | 13.6 µM (inactive) | 29.6 µM (inactive) | 11.9 µM (inactive) | 15.2 µM (inactive) | 26.4 µM (inactive) | 45 µM (inactive) | 21 µM (inactive) | 18 µM (inactive) | 3.39 µM (inactive)
